Measurements as given in patent publication US11236106B2, “Cycloalkane-1,3-diamine derivative” (Daiichi Sankyo Company, Limited, priority 2018, dated 2022).
Where a name gives a salt, the structure may show the parent alone.

target: T1, menin and MLL (menin, Flag tagged; biotinylated MLL1 peptide 1-46aa) (Homo sapiens, UniProt O00255); assay: biochemical; conditions: not given
T1 sequence (O00255 1-610): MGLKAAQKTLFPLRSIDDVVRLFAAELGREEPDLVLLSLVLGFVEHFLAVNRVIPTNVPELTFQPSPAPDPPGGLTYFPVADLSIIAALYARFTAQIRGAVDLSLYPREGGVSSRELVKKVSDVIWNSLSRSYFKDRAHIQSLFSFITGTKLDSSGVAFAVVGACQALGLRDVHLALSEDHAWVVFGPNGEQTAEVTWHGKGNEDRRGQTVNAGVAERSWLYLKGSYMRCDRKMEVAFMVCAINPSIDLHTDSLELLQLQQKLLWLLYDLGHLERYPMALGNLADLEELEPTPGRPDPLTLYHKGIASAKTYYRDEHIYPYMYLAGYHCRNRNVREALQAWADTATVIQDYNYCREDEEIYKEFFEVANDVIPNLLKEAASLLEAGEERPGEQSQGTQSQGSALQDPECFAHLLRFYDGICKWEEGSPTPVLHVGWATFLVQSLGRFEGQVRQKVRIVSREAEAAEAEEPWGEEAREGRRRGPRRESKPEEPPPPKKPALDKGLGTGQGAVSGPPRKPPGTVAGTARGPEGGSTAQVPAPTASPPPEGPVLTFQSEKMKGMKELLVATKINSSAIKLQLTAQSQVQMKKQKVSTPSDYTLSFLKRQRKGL

Structure (SMILES)	IC50
COc1nc(N(C)[C@H]2C[C@@H](NCc3ccc(-c4cc(OC)c(Cl)nn4)cc3)C[C@H]2O)c2cc(CC(F)(F)F)sc2n1 [Example 90, (1R,2S,4R)-4-({[4-(6-chloro-5methoxypyridazin-3-yl)phenyl]methyl}amino)-2-{[2-methoxy-6-(2,2,2-trifluoroethyl)thieno[2,3-d]pyrimidin-4-yl](methyl)amino}cyclopentan1-ol hydrochloride]	1.2 nM
COc1cncc(-c2ccc(CN[C@@H]3C[C@H](N(C)c4ncnc5sc(CC(F)(F)F)cc45)C[C@H]3O)cc2)c1 [Example 50, (1R,2R,4S)-2-({[4-(5-methoxypyridin-3-yl)phenyl]methyl}amino)-4-{methyl[6-(2,2,2-trifluoroethyl)thieno[2,3-d]pyrimidin-4-yl]amino}cyclopentan-1-ol hydrochloride]	9.7 nM
COc1nc(N(C)[C@H]2C[C@@H](NCC3CC=C(c4cc(OC)c(OC)nn4)CC3)C[C@H]2O)c2cc(CC(F)(F)F)sc2n1 (mixture of isomers) [Example 125, (1R,2S,4R)-4-({[4-(5,6-dimethoxypyridazin-3-yl)cyclohex-3-en-1-yl]methyl}amino)-2-{[2-methoxy-6-(2,2,2-trifluoroethyl)thieno[2,3-d]pyrimidin-4-yl](methyl)amino}cyclopentan-1-ol hydrochloride]	1.5 nM

same assay, conditions: IC50, binding inhibitory activity between menin and MLL, AlphaLISA; 1 nM menin, 10 nM biotinylated MLL1 peptide

Structure (SMILES)	IC50
COc1cc(-c2ccc(CN[C@H]3C[C@@H](O)[C@@H](N(C)c4ncnc5sc(CC(F)(F)F)cc45)C3)cc2)nnc1Oc1cccnc1 [Example 107, (1R,2S,4R)-4-{[(4-{5-methoxy-6-[(pyridin-3-yl)oxy]pyridazin-3-yl}phenyl)methyl]amino}-2-{methyl[6-(2,2,2-trifluoroethyl)thieno[2,3-d]pyrimidin-4-yl]amino}cyclopentan-1-ol hydrochloride]	1.3 nM
COc1cc(-c2ccc(CN[C@H]3C[C@@H](O)[C@@H](N(C)c4ncnc5sc(CC(F)(F)F)cc45)C3)c(F)c2)cnc1OC [Example 76, (1R,2S,4R)-4-({[4-(5,6-dimethoxypyridin-3-yl)-2-fluorophenyl]methyl}amino)-2-{methyl[6-(2,2,2-trifluoroethyl)thieno[2,3-d]pyrimidin-4-yl]amino}cyclopentan-1-ol hydrochloride]	8.6 nM
CN(c1ncnc2sc(CC(F)(F)F)cc12)[C@H]1C[C@@H](NCc2ccc(-c3cc(F)cc4c3cnn4S(C)(=O)=O)cc2)C[C@H]1O [Example 85, (1R,2S,4R)-4-[({4-[6-fluoro-1-(methanesulfonyl)-1H-indazol-4-yl]phenyl}methyl)amino]-2-{methyl[6-(2,2,2-trifluoroethyl)thieno[2,3-d]pyrimidin-4-yl]amino}cyclopentan-1-ol hydrochloride]	4 nM
CNc1ncc(-c2ccc(CN[C@H]3C[C@@H](O)[C@@H](N(C)c4ncnc5sc(CC(F)(F)F)cc45)C3)cc2)cc1OC [Example 92, (1R,2S,4R)-4-[({4-[5-methoxy-6-(methylamino)pyridin-3-yl]phenyl}methyl)amino]-2-{methyl[6-(2,2,2-trifluoroethyl)thieno[2,3-d]pyrimidin-4-yl]amino}cyclopentan-1-ol hydrochloride]	1.5 nM
COc1nc(N(C)[C@H]2C[C@@H](NCc3ccc(-c4cnc(OC)c(OC)c4)cc3)C[C@H]2O)c2cc(CC(F)(F)F)sc2n1 [Example 81, (1R,2S,4R)-4-({[4-(5,6-dimethoxypyridin-3-yl)phenyl]methyl}amino)-2-{[2-methoxy-6-(2,2,2-trifluoroethyl)thieno[2,3-d]pyrimidin-4-yl](methyl)amino}cyclopentan-1-ol hydrochloride]	6.1 nM
CNc1nc(N(C)[C@H]2C[C@@H](NCc3ccc(-c4cccc(S(=O)(=O)N(C)C)c4)cc3)C[C@H]2O)c2cc(CC(F)(F)F)sc2n1 [Example 69, 4′-({[(1R,3R,4S)-3-hydroxy-4-{methyl[2-(methylamino)-6-(2,2,2-trifluoroethyl)thieno[2,3-d]pyrimidin-4-yl]amino}cyclopentyl]amino}methyl)-N,N-dimethyl[1,1′-biphenyl]-3-sulfonamide hydrochloride]	2.8 nM
COc1nc(N(C)[C@H]2C[C@@H](NCc3ccc(-c4cnc(C#N)c(OC)c4)cc3)C[C@H]2O)c2cc(CC(F)(F)F)sc2n1 [Example 106, 5-[4-({[(1R,3R,4S)-3-hydroxy-4-{[2-methoxy-6-(2,2,2-trifluoroethyl)thieno[2,3-d]pyrimidin-4-yl](methyl)amino}cyclopentyl]amino}methyl)phenyl]-3-methoxypyridine-2-carbonitrile hydrochloride]	0.7 nM
CNc1nc(N(C)[C@H]2C[C@@H](NCc3ccc(-c4cc(F)c(F)c(OC)c4)cc3)C[C@H]2O)c2cc(CC(F)(F)F)sc2n1 [Example 82, (1R,2S,4R)-4-{[(3′,4′-difluoro-5′-methoxy[1,1′-biphenyl]-4-yl)methyl]amino}-2-{methyl[2-(methylamino)-6-(2,2,2-trifluoroethyl)thieno[2,3-d]pyrimidin-4-yl]amino}cyclopentan-1-ol hydrochloride]	22.8 nM
COc1cc(-c2ccc(CN[C@H]3C[C@@H](O)[C@@H](N(C)c4ncncc4Oc4ccc(F)cc4-c4ccnn4C(C)C)C3)cc2)nnc1OC [Example 102, (1R,2S,4R)-4-({[4-(5,6-dimethoxypyridazin-3-yl)phenyl]methyl}amino)-2-[(5-{4-fluoro-2-[1-(propan-2-yl)-1H-pyrazol-5-yl]phenoxy}pyrimidin-4-yl)(methyl)amino]cyclopentan-1-ol hydrochloride]	2.7 nM
[2H]C([2H])([2H])Oc1cc(-c2ccc(CN[C@H]3C[C@@H](O)[C@@H](N(C)c4nc(OC)nc5sc(CC(F)(F)F)cc45)C3)cc2)nnc1OC([2H])([2H])[2H] [Example 123, (1R,2S,4R)-4-{[(4-{5,6-bis[(^2H3)methyloxy]pyridazin-3-yl}phenyl)methyl}amino}-2-{[2-methoxy-6-(2,2,2-trifluoroethyl)thieno[2,3-d]pyrimidin-4-yl](methyl}amino}cyclopentan-1-ol]	0.6 nM
CNC(=O)c1cccc(-c2ccc(CN[C@H]3CC[C@@H](N(C)c4ncnc5sc(CC(F)(F)F)cc45)C3)cc2)c1 [Example 66, N-methyl-4′-({[|(1S,3R)-3-{methyl[6-(2,2,2-trifluoroethyl)thieno[2,3-d]pyrimidin-4-yl]amino}cyclopentyl]amino}methyl)[1,1′-biphenyl]-3-carboxamide hydrochloride]	6.7 nM
COc1cc(-c2ccc(CN[C@H]3C[C@@H](O)[C@@H](N(C)c4ncnc5sc(CC(F)(F)F)cc45)C3)cc2)nnc1Cl [Example 84, (1R,2S,4R)-4-({[4-(6-chloro-5-methoxypyridazin-3-yl)phenyl]methyl}amino)-2-{methyl[6-(2,2,2-trifluoroethyl)thieno[2,3-d]pyrimidin-4-yl]amino}cyclopentan-1-ol hydrochloride]	2.7 nM

same assay, conditions: cell free IC50 (nM), 1 nM menin, 10 nM biotinylated MLL1 peptide, AlphaLISA

Structure (SMILES)	IC50
COc1cncc(-c2ccc(CN[C@H]3C[C@@H](O)C[C@@H](Nc4ncnc5sc(CC(F)(F)F)cc45)C3)cc2)c1 (single isomer, unassigned) [Example 15A, Hydrochloride]	21.6 nM
COc1cncc(-c2ccc(CN[C@H]3CC[C@@H](N(C)c4ncnc5sc(C6COC6)cc45)C3)cc2)c1 [Example 48, (1R,3S)-N^3-{[4-(5-methoxypyridin-3-yl)phenyl]methyl}-N^1-methyl-N^1-[6-(oxetan-3-yl)thieno[2,3-d]pyrixnidin-4-yl]cyclopentane-1,3-diamine hydrochloride]	1420 nM
COc1cncc(-c2ccc(CN[C@@H]3C[C@H](O)C[C@H](Nc4ncnc5sc(CC(F)(F)F)cc45)C3)cc2)c1 (single isomer, unassigned) [Example 15B, Hydrochloride]	403 nM
N#Cc1cc2cc(CN[C@@H]3CC[C@@H](Nc4ncnc5sc(CC(F)(F)F)cc45)C3)ccc2[nH]1 [Example 1, 5-({[(1R,3R)-3-{[6-(2,2,2-trifluoroethyl)thieno[2,3-d]pyrimidin-4-yl]amino}cyclopentyl]amino}methyl)-1H-indole-2-carbonitrile Hydrochloride]	494 nM
COc1cncc(-c2ccc(CN[C@@H]3C[C@H](Nc4ncnc5sc(CC(F)(F)F)cc45)C[C@H](C(=O)N(C)C)C3)cc2)c1 (single isomer, unassigned) [Example 17B, Hydrochloride]	13.3 nM
C=CS(=O)(=O)NCCCNC(=O)c1ccc(CN[C@H]2CC[C@@H](N(C)c3ncnc4sc(CC(F)(F)F)cc34)C2)cc1 [Example 34, N-{-3-[(ethenesulfonyl)amino]propyl}-4-({[(1S,3R)-3-{methyl[6-(2,2,2-trifluoroethyl)thieno[2,3-d]pyrimidin-4-yl]amino}cyclopentyl]amino}methyl)benzamide hydrochloride]	413 nM
COc1cncc(-c2ccc(CN[C@@H]3C[C@H](N(C)c4ncnc5sc(CC(F)(F)F)cc45)[C@@H](O)[C@H]3O)cc2)c1 [Example 20B, (1R,2S,3R,5S)-3-({[4-(5-methoxypyridin-3-yl)phenyl]methyl}amino)-5-{methyl[6-(2,2,2-trifluoroethyl)thieno[2,3-d]pyrimidin-4-yl]amino}cyclopentane-1,2-diol Hydrochloride]	16.4 nM
